From patent US11753379B2, “Process for forming 2-hydroxypyridine-1-oxide or derivatives thereof” (Clariant International Ltd., priority 2018, dated 2023) come the findings set out here.

For data set [1], the system named is Candida albicans DSM 1386. The experiment in a line: MIC test, efficacy versus microbes. Type of data set: cell-based. The following applies: DSM1386, pH 6.5, Octopirox tested as 5%, Piroctone as 3.98% in butylpolyglycol, read-out: MIC in ppm pH 6.5 (Malassezia Agar). The procedure: (§1) A compound according to Formula (2), namely 1-hydroxy-4-methyl-6-(2,4,4-trimethyl pentyl)-2(1H)-pyridone (named as Piroctone in the below table), is tested for efficacy versus various microbes. Comparison is made versus Piroctone Olamine (=Octopirox®).

The subject of data set [2] is Malassezia furfur DSM 6170. The data set can be described thus: MIC test, efficacy versus microbes. The class given is cell-based. The following applies: DSM6170, pH 6.5, Octopirox tested as 5%, Piroctone as 3.98% in butylpolyglycol, read-out: MIC in ppm pH 6.5 (Malassezia Agar). On the procedure:
as §1

For data set [3], the system named is Malassezia pachydermatis DSM 6172. The experiment in a line: MIC test, efficacy versus microbes. Type of data set: cell-based. The following applies: DSM6172, pH 6.5, Octopirox tested as 5%, Piroctone as 3.98% in butylpolyglycol, read-out: MIC in ppm pH 6.5 (Malassezia Agar). On the procedure:
as §1

Data set [4] relates to Malassezia globosa ATCC 4889. The data set can be described thus: MIC test, efficacy versus microbes. The class given is cell-based. The following applies: ATCC4889, pH 6.5, Octopirox tested as 5%, Piroctone as 3.98% in butylpolyglycol, read-out: MIC in ppm pH 6.5 (Malassezia Agar). On the procedure:
as §1

Data set [5] deals with Saccharomyces cerevisiae DSM 70449. The experiment in a line: MIC test, efficacy versus microbes. Type of data set: cell-based. The following applies: DSM70449, pH 6.5, Octopirox tested as 5%, Piroctone as 3.98% in butylpolyglycol, read-out: MIC in ppm pH 6.5 (Malassezia Agar). On the procedure: as §1
For data set [6], the system named is various microbes. The experiment in a line: MIC tests overall, comparison versus Piroctone Olamine. The class given is cell-based. On the procedure: as §1
Data set [7] can be described thus: Solubility testing in various solvents. The class given is physicochemical. The following applies: for Solubility: directly after addition and after standing for a week. The procedure:
A compound according to Formula (2), namely 1-hydroxy-4-methyl-6-(2,4,4-trimethylpentyl)-2(1H)-pyridone, is tested for solubility in various solvents. A 10% (w/w) solution of this compound is tested. The solubility is tested directly after addition as well as after being left to stand for a week.

Structures can show the parent of a compound that is named as a salt.

The MIC is the least concentration at which growth counts as inhibited. As to `Cc1cc(CC(C)CC(C)(C)C)n(O)c(=O)c1` (stereo not shown) [Octopirox, monoethanolamine salt of 1-hydroxy-4-methyl-6-(2,4,4-trimethylpentyl)-2(1H)-pyridone], the MIC in data set [1], in data set [2], in data set [3], in data set [4] and in data set [5] was 500 µg/mL in each case.
Turning to `Cc1cc(CC(C)CC(C)(C)C)n(O)c(=O)c1` (stereo not shown) [Piroctone, 1-hydroxy-4-methyl-6-(2,4,4-trimethylpentyl)-2(1H)-pyridone], the “Mass efficacy better than Piroctone Olamine” value in data set [6] (antimicrobial efficacy per mass) was “around 20%”. In data set [6] (conclusion from Experiment 2), the “Activity in MIC tests compared with Piroctone Olamine” value was “same activity in MIC tests at a lower concentration than Piroctone Olamine”. The “Comments (solubility observation)” value in data set [7] (10% (w/w) in 1,3-Dioxolane) was “Not soluble”; in data set [7] (10% (w/w) in 2-Methyltetrahydrofuran), “Not soluble”; in data set [7] (10% (w/w) in 3-Pentanone), “Not completely soluble, supernatant”; in data set [7] (10% (w/w) in Acetone (purity >99%)), “Dissolves to a large extend”; in data set [7] (10% (w/w) in Ethanol), “Dissolves slowly leading to a clear”; in data set [7] (10% (w/w) in Isopropanol) it was “Not completely dissolved,”. In data set [7] (10% (w/w) in Methanol), the “Comments (solubility observation)” value was “Soluble. Resulting soltuion is clear”. In addition, the Solubility entry in data set [7] (10% (w/w) solution in 1,3-Dioxolane) was “no”; in data set [7] (10% (w/w) solution in 2-Methyltetrahydrofuran), “no”; in data set [7] (10% (w/w) solution in 3-Pentanone), “no”; in data set [7] (10% (w/w) solution in Acetone (purity >99%)), “no”; in data set [7] (10% (w/w) solution in Ethanol) it was “excellently and yes”; in data set [7] (10% (w/w) solution in Isopropanol) it was “no”. Further, the Solubility result is “excellently and yes” in data set [7] (10% (w/w) solution in Methanol); “no” in data set [7] (10% (w/w) solution in tert. Butanol (2.5% H2O)).
